Experimental data reported in patent US8853215B2, “Derivatives of N-acyl-N′-phenylpiperazine useful (inter alia) for the prophylaxis or treatment of diabetes” (Takeda Pharmaceutical Company Limited, priority 2009, dated 2014).

Tests used:
human RBP4 = human RBP4 (Homo sapiens (Human), UniProt P02753); assay: Binding assay by Retinol-RBP4-TTR ELISA; conditions: for IC50: retinol 50 nM, His-tagged human RBP4, biotinylated human TTR, read-out: human RBP4 binding inhibitory activity (IC50 nM)
Method in brief: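 Biotinylated human TTR was captured on streptavidin plates, then His-tagged human RBP4 was added with compound premixed with 50 nM retinol (8 doses). Binding ran 2 h at room temperature in 50 mM Tris-HCl, 150 mM NaCl, 0.005% Tween 20, 1 mM DTT, 0.1% BSA, read by luminescence. Inhibition was scaled between retinol+DMSO and retinol-free controls, and IC50 fitted.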

RBP4 = RBP4 (Rattus norvegicus (Rat), UniProt P04916); assay: Single administration test in Wistar fatty rats, plasma RBP4 by ELISA; format: in vivo; conditions: male Wistar fatty rats, 10 mg/kg oral single dose, mean±SD; for RBP4 (% of initial/Control) 0 hr: 0 hr (just before the administration); for RBP4 (% of initial/Control) 4 hr: 4 hr after administration; for RBP4 (% of initial/Control) 7 hr: 7 hr after administration; for RBP4 (% of initial/Control) 24 hr: 24 hr after administration
Protocol: The action of the compounds of the present invention to lower plasma RBP4 level was evaluated using the animal model shown below.
(§1) Male Wistar fatty rats (fa/fa) were bred in Takeda Pharmaceutical Company Limited and maintained on normal diet (CE2, CLAE Japan, Inc.) and tap water. Animals were housed in a temperature-controlled room adjusted to a 12-hour light/12-hour dark cycle beginning at 7:00 and 19:00, respectively. All procedures were conducted according to the experimental animal care use committee of Takeda Pharmaceutical Company.
Male 13-43-week-old Wistar fatty rats were divided into groups randomly. Compounds were suspended in 0.5% (w/v) methylcellulose in water and given orally to Wistar fatty rats at a dose of 10 mg/10 mL/kg of body weight (3-5 rats per group). Blood samples were obtained from tail vein with sodium heparin as an anticoagulant at time 0 hr (just before the administration), 4 hr, 7 hr, and 24 hr after the administration, followed by plasma separation by centrifugation. Plasma RBP4 levels were measured by enzyme-linked immunosorbent assay described in the following section.
Plasma samples were analyzed in duplicate for RBP4 by an enzyme-linked immunosorbent assay. Mouse recombinant RBP4 (Takeda Pharmaceutical Company Limited) was used as standards, and the assay range was 0.313-20 ng/ml. Samples were diluted 10,000-fold with phosphate-buffered saline (PBS) (Sigma) containing 10% (w/v) BlockAce (Dainippon Sumitomo Pharma Co., Ltd). Rabbit anti-RBP4 polyclonal antibody (100 μL/well of 50 μg/mL, Hokudo Co, Ltd) was incubated in a 96-well plate (Nalge Nunc International K.K.) for overnight at 4° C. Subsequently, the plates were washed with PBS-T (Wako Pure Chemical Industries, Ltd.) and blocked with PBS containing 25% BlockAce for 1 hr at room temperature. After another washing with PBS-T, samples and standards were applied to the well, and the plates were incubated for 2 hr at room temperature. After a washing the wells, peroxidase-labeled (Dojindo Laboratories) anti-RBP4 (100 μL/well) was added to the wells, and then the plates were incubated for 1 hr at room temperature. After a final washing with PBS-T, substrate solution 3,3,5,5-tetramethylbenzidine (Sigma) was added to the wells, and the plates were placed in the dark for 5-20 min at room temperature. The reaction was stopped with 0.5 M sulphuric acid and the optical density was measured with a spectrophotometer at 450 nm. The changes in plasma RBP4 levels were expressed as % of initial/Control. All data are presented as mean±SD.

Zucker fatty rats = assay: Repeated drug administration test in Zucker fatty rats, plasma glucose and glycosylated hemoglobin; format: in vivo, Zucker fatty rats (fa/fa)
Protocol: The effect of the compound of the present invention on plasma levels of glucose and glycosylated hemoglobin were evaluated using the animal model shown below.
as §1, with “Zucker” for “Wistar”, “(fa/fa) and their lean littermates (Fa/?)” for “(fa/fa)”, “Company Limited.” for “Company.”
From 8 weeks of age, Zucker fatty rats were maintained on a high fat diet (D06110702, 20 kCal % fat) (LSG Corporation, Japan). A compound was suspended in 0.5% (w/v) methylcellulose in water and given orally to rats at a volume of 5 mL/kg of body weight. After 4 days of pre-administration of 0.5% (w/v) methylcellulose, rats were divided based on body weight, glycosylated hemoglobin, and plasma glucose (PG) (n=6 each). Drug administration was started at 15 weeks of age and a drug (10 mg/kg) was administered once a day for 28 days.
Before and 28 days after the administration, blood samples were obtained from tail vein with sodium heparin as an anticoagulant, followed by plasma separation by centrifugation. Plasma glucose (PG) levels were measured enzymatically by an Autoanalyzer 7180 (Hitachi, Japan). Glycosylated hemoglobin levels were analyzed by a high performance liquid chromatography-based method using an automated analyzer HLC-723 or HLC-723 G7 (Tosoh, Japan). The changes in glycosylated hemoglobin were calculated by subtracting the initial value from final value.

CD (SD) rats = assay: Repeated drug administration test in CD (SD) rats, retinol in plasma and retina by HPLC; format: in vivo
Protocol: The effect of the compound on retinol level in retina was evaluated using the animal model shown below.
as §1, with “CD (SD)” for “Wistar fatty”, “rats” for “rats (fa/fa)”, “purchased from Charles River (Japan)” for “bred in Takeda Pharmaceutical Company Limited”, “(CR-LPF) (Oriental Yeast Co., Ltd.)” for “(CE2, CLAE Japan, Inc.)”
A compound was suspended in 0.5% (w/v) methylcellulose in water and given orally to rats at a volume of 10 mL/kg of body weight. Drug administration was started at 6 weeks of age and a drug (10 mg/kg) was administered once a day for 14 days. After repeated administration, blood samples were obtained from tail vein. Rats were dissected under anesthesia with ethyl ether and eyes were isolated.
Retina was isolated from the eye of the rats mentioned 5B with stereoscopic microscope and sonicated. Retinol was extracted into n-hexane and samples were taken to dryness under nitrogen gas. Samples residues were resuspended into 2-propanol and analyzed by HPLC. Chromatographic separations were achieved on TSKgel ODS120T Column (4.6×250 mm) (Tosoh) using Alliance series reverse phase HPLC (Waters). The mobile phase contained acetonitrile/methanol (3/1) at 4° C. and detected at UV 325 nm. Retinol in retina was corrected by total protein detected by BCA protein assay (Pierce).

[1] = Zucker fatty rats, 10 mg/kg, 28 days repeated administration

Row | Compound | IC50 (human RBP4) [nM] | RBP4 (% of initial/Control) 0 hr (RBP4) | RBP4 (% of initial/Control) 4 hr (RBP4) | RBP4 (% of initial/Control) 7 hr (RBP4) | RBP4 (% of initial/Control) 24 hr (RBP4) | inhibition at 10 µM (human RBP4; at 10 μM compound, read-out: human RBP4 binding inhibitory activity(% at 10 μM)) [%] | Glycosylated hemoglobin (%) (Zucker fatty rats; Zucker fatty rats on high fat diet, 10 mg/kg oral once a day for 28 days, change = final minus initial value, mean±SD) | PG (% of initial/Vehicle) (Zucker fatty rats; Zucker fatty rats on high fat diet, 10 mg/kg oral once a day for 28 days, plasma glucose, mean±SD) | effect on PG (in words) (Zucker fatty rats; [1]) | effect on glycosylated hemoglobin (in words) (Zucker fatty rats; [1]) | effect on retinol in plasma and retina (in words) (CD (SD) rats; CD (SD) rats, 10 mg/kg, 14 days repeated administration) | Retinol in retina (CD (SD) rats; male CD (SD) rats, 10 mg/kg oral once a day for 14 days, corrected by total protein, mean±SD) [µg/mg] | Retinol in plasma (μg/mL) (CD (SD) rats; male CD (SD) rats, 10 mg/kg oral once a day for 14 days, mean±SD)
1 | CC(C)(C)c1ccccc1N1CCN(C(=O)NCC(=O)O)CC1 [Example 6, N-{[4-(2-tert-Butylphenyl)piperazin-1-yl]carbonyl}glycine] | 540 | 100 ± 14.1 % of initial/Control | 36.2 ± 5.0 % of initial/Control | 27.4 ± 5.9 % of initial/Control | 104.5 ± 4.4 % of initial/Control |  | 0.95 ± 0.67 | 70.0 ± 19.7 % of initial/Vehicle | decreased PG significantly | tended to decrease glycosylated hemoglobin (not significant) |  |  | 
2 | CC(C)(C)c1ccccc1N1CCN(C(=O)CC(=O)O)CC1 [Example 9, 3-[4-(2-tert-Butylphenyl)piperazin-1-yl]-3-oxopropanoic acid] | 54 | 100.0 ± 8.5 % of initial/Control | 49.6 ± 1.3 % of initial/Control | 49.2 ± 1.9 % of initial/Control | 114.3 ± 6.0 % of initial/Control |  |  |  |  |  |  |  | 
3 | CC(C)(C)c1ccccc1N1CCN(C(=O)CCC(=O)NS(C)(=O)=O)CC1 [Example 55, 4-(4-(2-tert-Butylphenyl)piperazin-1-yl)-N-(methylsulfonyl)-4-oxobutanamide] | 64 | 100.0 ± 5.3 % of initial/Control | 36.8 ± 5.8 % of initial/Control | 31.6 ± 7.7 % of initial/Control | 54.4 ± 14.3 % of initial/Control |  |  |  |  |  |  |  | 

Further lines, with some results ahead:

Row | IC50 (human RBP4) [nM] | RBP4 (% of initial/Control) 0 hr (RBP4) | RBP4 (% of initial/Control) 4 hr (RBP4) | RBP4 (% of initial/Control) 7 hr (RBP4) | RBP4 (% of initial/Control) 24 hr (RBP4) | inhibition at 10 µM (human RBP4; at 10 μM compound, read-out: human RBP4 binding inhibitory activity(% at 10 μM)) [%] | Compound | Glycosylated hemoglobin (%) (Zucker fatty rats; Zucker fatty rats on high fat diet, 10 mg/kg oral once a day for 28 days, change = final minus initial value, mean±SD) | PG (% of initial/Vehicle) (Zucker fatty rats; Zucker fatty rats on high fat diet, 10 mg/kg oral once a day for 28 days, plasma glucose, mean±SD) | effect on PG (in words) (Zucker fatty rats; [1]) | effect on glycosylated hemoglobin (in words) (Zucker fatty rats; [1]) | effect on retinol in plasma and retina (in words) (CD (SD) rats; CD (SD) rats, 10 mg/kg, 14 days repeated administration) | Retinol in retina (CD (SD) rats; male CD (SD) rats, 10 mg/kg oral once a day for 14 days, corrected by total protein, mean±SD) [µg/mg] | Retinol in plasma (μg/mL) (CD (SD) rats; male CD (SD) rats, 10 mg/kg oral once a day for 14 days, mean±SD)
4 | 300 | 100.0 ± 8.7 % of initial/Control | 76.2 ± 11 % of initial/Control | 89.1 ± 15.4 % of initial/Control | 97.9 ± 10.4 % of initial/Control |  | CC(C)(C)c1ccccc1N1CCN(C(=O)Cc2nnn[nH]2)CC1 [Example 58, 1-(4-(2-tert-Butylphenyl)piperazin-1-yl)-2-(1H-tetrazol-5-yl)ethanone] |  |  |  |  |  |  | 
5 |  | 100 ± 22.9 % of initial/Control | 34.7 ± 13.7 % of initial/Control | 24.9 ± 10.6 % of initial/Control | 9.2 ± 6.1 % of initial/Control | 100 | O=C(O)CCc1nc(-c2cc(C(F)(F)F)cc(C(F)(F)F)c2)co1 [Reference Example 26, 3-{4-[3,5-bis(trifluoromethyl)phenyl]-1,3-oxazol-2-yl}propanoic acid, reference compound] |  |  |  |  | decreased retinol in plasma and retina significantly | 0.06 ± 0.01 | Not detected
